Assay results from patent publication US20240174727A1, “LONG-ACTING NATRIURETIC PEPTIDES AND USES THEREOF” (Eli Lilly and Company, priority 2022, published 2024).
Numbered stars: 1 amine (or outer) side, 2 acyl side, 3 side chain; on linkers, the order of the positions; unused ones are H or OH. Bridge positions count the residues as written; N and C are the ends. Square brackets hold non-standard residues; d marks the D form. * marks the point of attachment. PEG24 = NCCOCCOCCOCCOCCOCCOCCOCCOCCOCCOCCOCCOCCOCCOCCOCCOCCOCCOCCOCCOCCOCCOCCOCCOCCC(=O)O; C20 diacid = O=C(O)CCCCCCCCCCCCCCCCCCC(=O)*; γGlu = O=C(O)[C@H](CCC(=O)[*:2])N[*:1]; CH2 = C([*:1])[*:2]

System: plasma cGMP
Experiment: In vivo monkey studies, plasma cGMP ELISA
Parameters: species or system male cynomolgus monkeys
Settings: for Net cGMP (nM) Change from Baseline 0.083 h: 0.083 h postdose; for Net cGMP (nM) Change from Baseline 0.083 h / Net cGMP (nM) Change from Baseline 0.25 h / Net cGMP (nM) Change from Baseline 0.5 h / Net cGMP (nM) Change from Baseline 1 h / Net cGMP (nM) Change from Baseline 2 h / Net cGMP (nM) Change from Baseline 4 h / Net cGMP (nM) Change from Baseline 8 h / Net cGMP (nM) Change from Baseline 12 h / Net cGMP (nM) Change from Baseline 24 h / Net cGMP (nM) Change from Baseline 36 h / Net cGMP (nM) Change from Baseline 48 h / Net cGMP (nM) Change from Baseline 72 h / Net cGMP (nM) Change from Baseline 96 h / Net cGMP (nM) Change from Baseline 120 h / Net cGMP (nM) Change from Baseline 144 h / Net cGMP (nM) Change from Baseline 168 h: monkey plasma; for Net cGMP (nM) Change from Baseline 0.25 h: 0.25 h postdose; for Net cGMP (nM) Change from Baseline 0.5 h: 0.5 h postdose; for Net cGMP (nM) Change from Baseline 1 h: 1 h postdose; for Net cGMP (nM) Change from Baseline 2 h: 2 h postdose; for Net cGMP (nM) Change from Baseline 4 h: 4 h postdose; for Net cGMP (nM) Change from Baseline 8 h: 8 h postdose; for Net cGMP (nM) Change from Baseline 12 h: 12 h postdose; for Net cGMP (nM) Change from Baseline 24 h: 24 h postdose; for Net cGMP (nM) Change from Baseline 36 h: 36 h postdose; for Net cGMP (nM) Change from Baseline 48 h: 48 h postdose; for Net cGMP (nM) Change from Baseline 72 h: 72 h postdose; for Net cGMP (nM) Change from Baseline 96 h: 96 h postdose; for Net cGMP (nM) Change from Baseline 120 h: 120 h postdose; for Net cGMP (nM) Change from Baseline 144 h: 144 h postdose; for Net cGMP (nM) Change from Baseline 168 h: 168 h postdose; for net cGMP levels (result in words): monkeys, single SC dose, plasma
Protocol: In vivo monkey studies were conducted as described in detail below. Young adult-to-adult male cynomolgus monkeys were given a single dose subcutaneously (SC). Blood was collected predose and at various pre-determined timepoints throughout the study period. Aliquot of cynomolgus monkey plasma was received for cyclic cGMP (cGMP) measurement and stored at −80° C. prior to use.
Control plasma was made for determining the recovery rate of spike-in cGMP using Enzo cGMP complete ELISA kit (Enzo Life Sciences, Inc, Farmingdale, NY, cat no. ADI-901-164). Briefly, blood from male Sprague Dawley rats (Inotiv, Indianapolis, IN), about 7 months old, was collected in a BD Vacutainer EDTA tube (Becton Dickinson, Franklin Lakes, NJ, cat no. BD-367856) with volume of approximate 4 mL through retro orbital bleeding. Plasma was prepared by spinning the tube in an Eppendorf Refrigerated Centrifuge 5810R (Brinkman Instruments, Inc, Westbury, NY) at 3500 rpm (3000×g) for 10 min at 4° C. Plasma was collected as Positive Control plasma. Cyclic GMP (cGMP standard from Enzo cGMP complete ELISA kit) was added to the positive control plasma at a final concentration of additional 40 nM. Positive Control and Spiked-in Control plasma were aliquoted and stored at −80° C.
The cGMP content was measured using the Enzo cGMP complete ELISA kit following the manufacturer's directions with modifications as described below. The cGMP standards provided in the kit were diluted 1:3 ranging from 50 nM to 0.023 nM in 1× assay buffer that was diluted in water from 2× assay buffer provided in the kit. The cGMP standards ([…]) were transferred to a 96-well polypropylene plate (Thermo Scientific, cat no. 442587).
Plasma samples were thawed from −80° C. and diluted 1:20 in 1× assay buffer in the above plate with a final volume of 150 μL. Assay buffer was added (150 μL) for both a non-specific binding control (in the absence of cGMP antibody) and a maximum binding control (in the absence of competing cGMP) in duplicate wells. Positive Control and Spiked-in Control plasma were diluted 1:20 in 1× assay buffer with a final volume of 150 μL in duplicate wells of the above plate. All diluted plasma was mixed by pipetting up and down several times.
Acetylation reagent mix was prepared by adding 1-part of acetic anhydride into 2-parts of triethylamine provided in the kit and mixing well using Vortex (Scientific Industries, Inc, Bohemia, NY). All controls, standards, and plasma samples were acetylated by adding 15 μL of acetylation reagent mix into the plate, one column at a time, and shaking for 1 min on a Titer Plate Shaker (Lab-Line Instrument, Inc., Melrose Park, IL) at room temperature. The plate was shaken for an additional 1 min following the acetylation of the last column to ensure the reaction was completed.
Acetylated controls, standard and plasma samples were transferred (100 μL) to an ELISA plate (n=1). Then 50 μL of cGMP conjugate were added to each well followed by the addition of 50 μL cGMP antibody to each well except for two non-specific binding wells, in which 50 μL of 1× assay buffer were added. The plate was then sealed and shaken for 2 h at room temperature on the plate shaker. Following this incubation, the plate was washed five times using 200 μL of 1× wash buffer diluted in water from 5× wash buffer provided in the kit. Then, 200 μL of para-Nitrophenylphosphate (pNpp) were added to each well. The plate was sealed with a new plate sealer and shaken in dark for 1 h at room temperature on the plate shaker. Finally, 50 μL of stop solution were added to each well to stop the enzyme reaction. The plate was then read at 405 nm using SpectraMax Plus (Molecular Devices, San Jose, CA).
The mean absorbance at 405 nm (O.D. 405 nm) for the non-specific binding controls was subtracted from the O.D. 405 nm of all samples. The subtracted O.D. 405 nm of all samples were then normalized with the mean subtracted O.D. 405 nm of the maximum binding controls as B/B0%. […]

Row | Compound | net cGMP levels (result in words) | Net cGMP (nM) Change from Baseline 0.083 h (dose 100 nmol/kg) [nM] | Net cGMP (nM) Change from Baseline 0.25 h (dose 100 nmol/kg) [nM] | Net cGMP (nM) Change from Baseline 0.5 h (dose 100 nmol/kg) [nM] | Net cGMP (nM) Change from Baseline 1 h (dose 100 nmol/kg) [nM] | Net cGMP (nM) Change from Baseline 2 h (dose 100 nmol/kg) [nM] | Net cGMP (nM) Change from Baseline 4 h (dose 100 nmol/kg) [nM] | Net cGMP (nM) Change from Baseline 8 h (dose 100 nmol/kg) [nM] | Net cGMP (nM) Change from Baseline 12 h (dose 100 nmol/kg) [nM] | Net cGMP (nM) Change from Baseline 24 h (dose 100 nmol/kg) [nM] | Net cGMP (nM) Change from Baseline 36 h (dose 100 nmol/kg) [nM] | Net cGMP (nM) Change from Baseline 48 h (dose 100 nmol/kg) [nM] | Net cGMP (nM) Change from Baseline 72 h (dose 100 nmol/kg) [nM] | Net cGMP (nM) Change from Baseline 96 h (dose 100 nmol/kg) [nM] | Net cGMP (nM) Change from Baseline 120 h (dose 100 nmol/kg) [nM] | Net cGMP (nM) Change from Baseline 144 h (dose 100 nmol/kg) [nM] | Net cGMP (nM) Change from Baseline 168 h (dose 100 nmol/kg) [nM] | also measured
1 | {C20 diacid-γGlu}-EKEKEKGEKPRSSCFGKRIDRIGHQSGLGCPSFRHGSPSSGAPPPS-NH2 (linker 14-30 via CH2) [Example 127] | increased net cGMP levels |  |  |  |  |  |  |  |  |  |  |  |  |  |  |  |  | Net cGMP (nM) Change from Baseline 0.083 h (dose 50 nmol/kg): -0.87 nM; Net cGMP (nM) Change from Baseline 0.25 h (dose 50 nmol/kg): 4.09 nM; Net cGMP (nM) Change from Baseline 0.5 h (dose 50 nmol/kg): 8.84 nM; Net cGMP (nM) Change from Baseline 1 h (dose 50 nmol/kg): 8.13 nM; Net cGMP (nM) Change from Baseline 2 h (dose 50 nmol/kg): 8.92 nM; Net cGMP (nM) Change from Baseline 4 h (dose 50 nmol/kg): 10.25 nM; Net cGMP (nM) Change from Baseline 8 h (dose 50 nmol/kg): 13.28 nM; Net cGMP (nM) Change from Baseline 12 h (dose 50 nmol/kg): 18.76 nM; Net cGMP (nM) Change from Baseline 24 h (dose 50 nmol/kg): 20.16 nM; Net cGMP (nM) Change from Baseline 36 h (dose 50 nmol/kg): 19.43 nM; Net cGMP (nM) Change from Baseline 48 h (dose 50 nmol/kg): 18.43 nM; Net cGMP (nM) Change from Baseline 72 h (dose 50 nmol/kg): 12.9 nM; Net cGMP (nM) Change from Baseline 96 h (dose 50 nmol/kg): 11.67 nM; Net cGMP (nM) Change from Baseline 120 h (dose 50 nmol/kg): 9.32 nM; Net cGMP (nM) Change from Baseline 144 h (dose 50 nmol/kg): 9.3 nM; Net cGMP (nM) Change from Baseline 168 h (dose 50 nmol/kg): 9.36 nM
2 | CC[C@H](C)[C@@H]1NC(=O)[C@H](CCCNC(=N)N)NC(=O)[C@H](CC(=O)O)NC(=O)[C@H]([C@@H](C)CC)NC(=O)[C@H](CCCNC(=N)N)NC(=O)[C@H](CCCCN)NC(=O)CNC(=O)[C@H](Cc2ccccc2)NC(=O)[C@@H](NC(=O)[C@H](CO)NC(=O)[C@H](CO)NC(=O)[C@H](CCCNC(=N)N)NC(=O)[C@H](CCCNC(=N)N)NC(=O)[C@H](Cc2ccncc2)NC(=O)[C@H](CO)NC(=O)CNC(=O)[C@H](CCCCN)NC(=O)[C@H](CCC(=O)O)NC(=O)[C@H](CCCCN)NC(=O)[C@H](CCC(=O)O)NC(=O)[C@H](CCCCN)NC(=O)[C@H](CCC(=O)O)NC(=O)CC[C@H](NC(=O)CCCCCCCCCCCCCCCCC(=O)O)C(=O)O)CSCSC[C@@H](C(=O)N2CCC[C@H]2C(=O)N[C@@H](CO)C(=O)N[C@@H](Cc2ccccc2)C(=O)N[C@@H](CCCNC(=N)N)C(=O)N[C@@H](Cc2c[nH]cn2)C(=O)NCC(=O)NCC(=O)N[C@@H](CCCCN)C(=O)N[C@@H](CO)C(=O)N[C@@H](CO)C(=O)NCC(=O)N[C@@H](C)C(=O)N2CCC[C@H]2C(=O)N2CCC[C@H]2C(=O)N2CCC[C@H]2C(=O)N[C@@H](CO)C(N)=O)NC(=O)CNC(=O)[C@H](CC(C)C)NC(=O)CNC(=O)[C@H](CO)NC(=O)[C@H](Cc2ccc(O)cc2)NC(=O)[C@H](Cc2c[nH]cn2)NC(=O)CNC1=O [Example 81] | increased net cGMP levels | 5.6 | 32.08 | 37.47 | 43.98 | 38.64 | 31.25 | 23.05 | 27.6 | 22.83 | 24.25 | 15.44 | 12.4 | 10.48 | 12.63 | 9.54 | 7 | 
3 | (BFAEN2-βAla)-EKEKEKG-PEG24-EK-βAla-RSS[CFGKRIDRIGHQSGLGC]PSFRHGSPSSGAPPPS-NH2 (EKXRSSCFGKRIDRIGHQSGLGCPSFRHGSPSSGAPPPS; BFAEN2-βAla, PEG24, C-terminal amide; MOD_RES 1 N-terminal modified with (BFAEN2-beta-Ala)-EKEKEKG-PEG24-; wherein BFAEN2 is Bifurcated Fatty Acid Enantiomer 2; SITE 3 X at position 3 is beta-Alanine; MOD_RES 39 Amidation; DISULFID 7..23 Intrachain thioacetal bond) [Example 144] | increased net cGMP levels | 5.9 | 18.26 | 27.08 | 36.51 | 35.21 | 27.1 | 20.15 | 13.2 | 10.23 | 9.57 | 7.11 | 5.22 | 6.83 | 3.5 | 4.48 | 8.71 | 
4 | {C20 diacid-γGlu}-EKEKEKG[PEG24]EKPRSSCFGKRIDRIGHQSGLGCPSFRHSGSPSSGAPPPSG-NH2 (linker 15-31 via CH2) [Example 132, HOOC-(CH2)18-CO-(γGlu)-EKEKEKG-PEG24-EKPRSS[CFGKRIDRIGHQSGLGCJPSFRHSGSPSSGAPPPSG-NH2] | increased net cGMP levels |  |  |  |  |  |  |  |  |  |  |  |  |  |  |  |  | Net cGMP (nM) Change from Baseline 0.083 h (dose 25 nmol/kg): 2.96 nM; Net cGMP (nM) Change from Baseline 0.25 h (dose 25 nmol/kg): 11.54 nM; Net cGMP (nM) Change from Baseline 0.5 h (dose 25 nmol/kg): 25 nM; Net cGMP (nM) Change from Baseline 1 h (dose 25 nmol/kg): 29.41 nM; Net cGMP (nM) Change from Baseline 2 h (dose 25 nmol/kg): 28.64 nM; Net cGMP (nM) Change from Baseline 4 h (dose 25 nmol/kg): 28.7 nM; Net cGMP (nM) Change from Baseline 8 h (dose 25 nmol/kg): 24.12 nM; Net cGMP (nM) Change from Baseline 12 h (dose 25 nmol/kg): 20.96 nM; Net cGMP (nM) Change from Baseline 24 h (dose 25 nmol/kg): 19.79 nM; Net cGMP (nM) Change from Baseline 36 h (dose 25 nmol/kg): 17.54 nM; Net cGMP (nM) Change from Baseline 48 h (dose 25 nmol/kg): 12.7 nM; Net cGMP (nM) Change from Baseline 72 h (dose 25 nmol/kg): 13.11 nM; Net cGMP (nM) Change from Baseline 96 h (dose 25 nmol/kg): 11.68 nM; Net cGMP (nM) Change from Baseline 120 h (dose 25 nmol/kg): 13.22 nM; Net cGMP (nM) Change from Baseline 144 h (dose 25 nmol/kg): 11.64 nM; Net cGMP (nM) Change from Baseline 168 h (dose 25 nmol/kg): 7.08 nM
